{
  "source": "patent US20220193013A1",
  "about": "“Pharmaceutical Composition for Treatment or Prevention of Multiple Inflammatory Disorders” (priority 2020, published 2022)",
  "key": {"[1]": {"system": "DSS-induced colitis in mice", "assay": "dextran sulfate sodium (DSS)-induced colitis in mice", "format": "in vivo, mouse", "excerpt": "This example provides the results of an in vivo study in a dextran sulfate sodium (DSS)-induced colitis in mice model. Inflammatory bowel diseases (IBD), mainly comprising ulcerative colitis and Crohn's Disease, are complex and multifactorial diseases with unknown etiology. To study human IBD mechanistically, a number of murine models of colitis have been developed. These models are tools to decipher underlying mechanisms of IBD pathogenesis as well as to evaluate potential therapeutics. […] Moreover, many existing IBD-approved drugs have been studied in this model to allow a comparison of new potential drug compounds as compared with existing drugs with approved IBD indications. […] mice were divided into 5 groups of 3-10 mice, provided with standard mouse chow diet ad libitum, and housed up to 5 per cage. Dexamethasone 21-phosphate disodium salt (DMS; Alfa Aesar Catalog #J64083-1G, Lot R02F035) (was used as a positive control. Hemoccult kits were obtained from Beckman (Hemoccult SENSA kit). Dextran sodium sulfate (DSS) reagent grade (MPI Catalog #160110, Lot #6046H, MW 36,000-50,000, CAS 9011-18-1) was supplemented in the water of certain groups to induced IBD-like symptoms. On day −3 treatment began prior to DSS delivery. On day 1 all mice were pre-weighed and given fresh 4-5% DSS in water every day for 5 days and water is then given for the remainder of the study to elicit disease. An additional control group was given water (no DSS) for the duration of the study (10 days). Body weight was measured daily, fecal blood status (hemoccult) was measured 3X per week, fecal consistency 3× per week and general health determined daily. Mice were sacrificed on day 10 and serum obtained for cytokine analysis and colon length and weight determined. There were two control groups of water only and DSS without drug treatment. There were two treatment groups at 69.3 mg/kg (n=10) bid and 23.1 mg/kg bid (n=10)."}, "[2]": {"system": "acute lung injury plus hyperthermia, CD-1 mice", "assay": "mouse acute lung injury plus hyperthermia model", "format": "in vivo", "experimental": "This example provides results of a study to evaluate the effect of denatonium acetate in a mouse acute lung injury plus hyperthermia model. The procedure was three groups of CD-1 mice given (1) saline by gavage for oral administration BID, (2) DA administered oral at a dose of 92.4 mg/kg BID and (3) was DA iv at 3 mg/kg iv bolus QD. Lung lavage fluid was measured and cytokine analysis. Statistics was one-way ANOVA followed by Tukey's multiple comparison post hoc test for data with normal distribution; Kruskal-Wallis test followed by Dunn's multiple comparison post hoc test for data with skewed distribution; and the ROUT method for identifying outliers. Control or drug administered for 3 days, then LPS at 50 μL of 1 mg/ml delivered intratracheally with a Penn Century needle where a core temperature of 39 C at 24 hours post LPS and then sacrifice to measure lung lavage fluid protein concentration and serum cytokine levels."}, "[3]": {"system": "DIO mice (C57BL/6NTac, high fat diet)", "assay": "body weight study in diet-induced obese (DIO) mice, 56 days", "format": "in vivo, mouse", "experimental": "This example provides results of a study of DA plus another compound (CQL) on body weight in diet-induced (DIO) mice. Adult C57BL/6NTac mice were fed with a high fat diet (60%). Vehicle group (N=15) were treated with distilled water by gavage BID, CQL (N=15) were treated at 50 mg/kg by gavage BID, and DA (N=15) at a dose of 92.4 mg/kg by gavage BID. The study period was for 56 days+2-3 days testing period afterward. […] Metabolic biomarkers were measured on days 28 and 56. Cytokine analysis on Days 28 and 56. Serum levels of GLP-1, GLP-2, and CCK at 1 h after dosing on Days 1 and 56, and at 2 h after dosing on Day 7 (dosing (>6 h fasting prior to dosing until after blood collection); and serum level of PPY on Day 56."}, "[4]": {"conditions": "high-dose of DA, no significant difference observed"}, "[5]": {"conditions": "DA 92.4 mg/kg gavage BID, compared to vehicle"}, "[6]": {"conditions": "DA 92.4 mg/kg, CQL 50 mg/kg, gavage BID"}},
  "data": [
    {"smiles": "CC(=O)[O-].CC[N+](CC)(CC(=O)Nc1c(C)cccc1C)Cc1ccccc1", "note": "[DA, denatonium acetate]", "values": [
      {"measurement": "body weight at day 10", "setting": "[1]; 69.3 mg/kg DA, BID, vs vehicle", "result": "significant effect against DSS-induced body weight loss"},
      {"measurement": "combined fecal score during the study period", "setting": "[1]; DA 23.1 and 69.3 mg/kg bid", "result": "significant main effect"},
      {"measurement": "fecal consistency score during the study period", "setting": "[1]; DA 23.1 and 69.3 mg/kg bid", "result": "significant main effect"},
      {"measurement": "fecal occult blood scores during the study period", "setting": "[1]; DA 23.1 and 69.3 mg/kg bid", "result": "significant main effect"},
      {"measurement": "body weight changes during the study period", "setting": "[1]; DA 23.1 and 69.3 mg/kg bid, P=0.0052", "result": "significant main effect"},
      {"measurement": "colon length at day 10", "setting": "[1]; [4]", "result": "could counteract DSS-induced decrease"},
      {"measurement": "colon weight at day 10", "setting": "[1]; [4]", "result": "could counteract DSS-induced decrease"},
      {"measurement": "spleen weight at day 10", "setting": "[1]; high-dose of DA, no significant effect observed", "result": "trend to counteract DSS-induced spleen weight loss"},
      {"measurement": "protein concentration in lung lavage fluid", "setting": "[2]; iv 3 mg/kg bolus QD", "result": "drastic but not significantly reduced"},
      {"measurement": "protein concentration in lung lavage fluid", "setting": "[2]; oral 92.4 mg/kg BID", "result": "drastic but not significantly reduced"},
      {"measurement": "serum glucose levels", "setting": "[3]; DA 92.4 mg/kg gavage BID", "result": "did not show a significant effect"},
      {"measurement": "daily food intake at Day 14", "setting": "[3]; [5]", "result": "significantly reduced"},
      {"measurement": "serum CCK levels at Day 56", "setting": "[3]; [5]", "result": "significantly increased"},
      {"measurement": "serum GLP-1 levels at Days 7 and 56", "setting": "[3]; [5]", "result": "significantly increased"},
      {"measurement": "serum GLP-2 levels at Day 56", "setting": "[3]; [5]", "result": "significantly increased"},
      {"measurement": "serum PYY levels at Day 56", "setting": "[3]; [5]", "result": "significantly increased"},
      {"measurement": "serum insulin level at Day 28", "setting": "[3]; [5]", "result": "significantly reduced"},
      {"measurement": "body weight gain at day 57", "setting": "[3]; DA 92.4 mg/kg gavage BID, compared to vehicle and CQL", "result": "significantly reduced"},
      {"measurement": "serum LDL levels at days 28 and 56", "setting": "[3]; DA 92.4 mg/kg gavage BID, compared to vehicle, no significant difference", "result": "noticeable decrease"},
      {"measurement": "serum HbA1c level at Day 28", "setting": "[3]; [6]", "result": "significantly reduced"},
      {"measurement": "serum HbA1c level at Day 56", "setting": "[3]; [6]", "result": "considerably increased"},
      {"measurement": "daily water intake at Day 28", "setting": "[3]; DA 92.4 mg/kg, CQL 50 mg/kg, gavage BID, compared to vehicle", "result": "significantly increased"},
      {"measurement": "serum Eotaxin, significance (p) of increase", "setting": "[3]; day 28", "result": 0.031},
      {"measurement": "serum G-CSR, significance (p) of increase", "setting": "[3]; day 28", "result": 0.063},
      {"measurement": "serum IL-6, significance (p) of increase", "setting": "[3]; day 28", "result": 0.041},
      {"measurement": "serum IP-10, significance (p) of increase", "setting": "[3]; day 28", "result": 0.013},
      {"measurement": "serum MIG, significance (p) of increase", "setting": "[3]; day 28", "result": "no sig"},
      {"measurement": "serum Eotaxin, significance (p) of increase", "setting": "[3]; day 56", "result": "no sig"},
      {"measurement": "serum G-CSR, significance (p) of increase", "setting": "[3]; day 56", "result": 0.039},
      {"measurement": "serum IL-6, significance (p) of increase", "setting": "[3]; day 56", "result": "no sig"},
      {"measurement": "serum IP-10, significance (p) of increase", "setting": "[3]; day 56", "result": "no sig"},
      {"measurement": "serum MIG, significance (p) of increase", "setting": "[3]; day 56", "result": 0.028}
    ]}
  ]
}
